Results published in patent US20190241535A1, “3-SUBSTITUTED CARBONYL-NAPHTHO[2,3-B]FURANE DERIVATIVE OR PHARMACEUTICALLY ACCEPTABLE SALT THEREOF” (Boston Biomedical, Inc., priority 2014, published 2019).
pIC50: −log10 of the molar value.

How the values were obtained:
Test in all cases: Test 2: inhibition of forming cancer cell sphere (Sphere IC50)
Assay type in all cases: cell-based
Settings in all cases: Homo sapiens, 96 h, ultra-low attachment plate, serum-free sphere medium, 4 days, CellTiter-Glo
[1] = test system: HT-29 cell
Description: (§1) HCT-116 cell, HT-29 cell, and FaDu cell were obtained from the American Type Culture Collection (ATCC). HCT-116 cell and HT-29 cell were cultivated at 37° C. in the presence of 5% CO2 using McCoy's 5a medium containing 10% fetal bovine serum (FBS), and 1% penicillin/streptomycin; and FaDu cell was cultivated at 37° C. in the presence of 5% CO2 using MEM containing 10% FBS, 1% non-essential amino acid, 1% sodium pyruvate, and 1% penicillin/streptomycin. Each of HCT-116 cell, HT-29 cell, and FaDu cell was seeded on 384 Wells Black Clear Bottom Ultra-Low Attachment Microplate (Corning Cat. No. 3827) in 350-800 cells/well, with DMEM/F12 medium containing 2% B27 supplement (GIBCO), 20 ng/mL epidermal growth factor (EGF) (peprotech), 10 ng/mL basic fibroblast growth factor (bFGF) (peprotech), 5 μg/mL insulin (Sigma), and 1% penicillin/streptomycin. Each test sample was added thereto to adjust the final concentration thereof in DMSO to 0.1% and the test wells were incubated for 4 days. And then, the viable cell count of each sample was measured using CellTiter-Glo® Luminescent Cell Viability Assay (Promega), and the concentration to inhibit the cell growth in each test sample by 50% was calculated (Sphere IC50 Value;μM).

[2] = test system: HCT-116 cell
Description: as §1

[3] = test system: FaDu cell
Description: as §1

## CN1CCN(C(=O)c2c(C(F)(F)F)oc3c2C(=O)c2ccccc2C3=O)CC1 [Example 8, 3-(4-Methylpiperazine-1-carbonyl)-2-(trifluoromethyl)naphtho[2,3-b]furan-4,9-dione]
[1]
  pIC50: 6.19
[2]
  pIC50: 6.28
[3]
  pIC50: 6.30
